Results from the supplement of paper PMC11061612.

Columns and labels:
Assay in all cases: combination Emax (second highest fraction inhibited in the dose matrix, 72 h); higher = more inhibition; extreme values may be limits of the assay
[1] = system: VCaP (Prostate Carcinoma)
Method in brief: (§1)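 After 24 hours at 37°C and 5% CO2 in 1536-well plates, cells in DMEM/F12 or RPMI plus 10% FBS received two-drug dose matrices for 72 hours. Viability came from CellTiter-Glo 2.0 luminescence and was scaled as inhibition, anchored at 0 by vehicle wells and at 1 by blank wells. Combination Emax is taken as the second-highest inhibition in the matrix, and Bliss excess as the observed combination effect less EA + EB − EA·EB, with EA and EB the single-agent effects.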

[2] = system: CAS-1 (Glioblastoma)
Method in brief: as §1

[3] = system: SISO (Cervical Carcinoma)
Method in brief: as §1

[4] = system: TT (Thyroid Gland Carcinoma)
Method in brief: as §1

[5] = system: SK-MG-1 (Low Grade Glioma)
Method in brief: as §1

[6] = system: NCI-H1581 (Non-Small Cell Lung Carcinoma)
Method in brief: as §1

[7] = system: GI-ME-N (Neuroblastoma)
Method in brief: as §1

[8] = system: U-2-OS (Osteosarcoma)
Method in brief: as §1

[9] = system: NCI-H1650 (Lung Adenocarcinoma)
Method in brief: as §1

[10] = system: LN-405 (Glioblastoma)
Method in brief: as §1

[11] = system: COLO-824 (Breast Carcinoma)
Method in brief: as §1

[12] = system: PA-1 (Ovarian Carcinoma)
Method in brief: as §1

[13] = system: CAL-29 (Bladder Carcinoma)
Method in brief: as §1

[14] = system: JSC-1 (B-Cell Non-Hodgkin's Lymphoma)
Method in brief: as §1

[15] = system: NY (Osteosarcoma)
Method in brief: as §1

[16] = system: CCK-81 (Colorectal Carcinoma)
Method in brief: as §1

[17] = system: A549 (Lung Adenocarcinoma)
Method in brief: as §1

[18] = system: CAPAN-2 (Pancreatic Carcinoma)
Method in brief: as §1

[19] = system: OS-RC-2 (Kidney Carcinoma)
Method in brief: as §1

[20] = system: ONS-76 (Other Solid Carcinomas)
Method in brief: as §1

| SMILES | combination Emax [1] | combination Emax [2] | combination Emax [3] | combination Emax [4] | combination Emax [5] | combination Emax [6] | combination Emax [7] | combination Emax [8] | combination Emax [9] | combination Emax [10] | combination Emax [11] | combination Emax [12] | combination Emax [13] | combination Emax [14] | combination Emax [15] | combination Emax [16] | combination Emax [17] | combination Emax [18] | combination Emax [19] | combination Emax [20] |
| --- | --- | --- | --- | --- | --- | --- | --- | --- | --- | --- | --- | --- | --- | --- | --- | --- | --- | --- | --- | --- |
| COc1cccc(OCCCN)c1-c1cc(Nc2cnc(C#N)cn2)n[nH]1 [Prexasertib] + CCc1c2c(nc3ccc(O)cc13)-c1cc3c(c(=O)n1C2)COC(=O)[C@]3(O)CC [SN-38] (first compound max 1 µM, 7x7, partner max 0.3 µM) | 0.748 | 0.834 | 0.972 | 0.916 | 0.982 | 0.897 | 0.529 | 0.871 | 0.778 | 0.669 | 1 | 0.91 | 0.98 | 0.987 | 0.935 | 0.835 | 0.796 | 0.495 | 0.431 | 0.867 |
| C=CCn1c(=O)c2cnc(Nc3ccc(N4CCN(C)CC4)cc3)nc2n1-c1cccc(C(C)(C)O)n1 [AZD1775] + O=C(c1cc(Cc2n[nH]c(=O)c3ccccc23)ccc1F)N1CCN(C(=O)C2CC2)CC1 [Olaparib] (first compound max 1 µM, partner max 10 µM) | 0.631 | 0.52 | 0.679 | 0.273 | 0.572 | 0.568 | 0.337 | 0.637 | 0.403 | 0.176 | 0.685 | 0.756 | 0.612 | 0.856 | 0.578 | 0.894 | 0.458 | 0.394 | 0.298 | 0.662 |
| Cc1c2c(nn1C)CSCc1cc(n(C)n1)CSc1cc(c3ccccc3c1)OCCCc1c(C(=O)O)n(C)c3c-2c(Cl)ccc13 [AZD5991] + C=CCn1c(=O)c2cnc(Nc3ccc(N4CCN(C)CC4)cc3)nc2n1-c1cccc(C(C)(C)O)n1 [AZD1775] (first compound max 1 µM, partner max 1 µM) | 0.916 | 0.852 | 0.663 | 0.428 | 0.783 | 1 | 0.532 | 0.809 | 0.548 | 0.55 | 0.667 | 0.937 | 0.919 | 1 | 0.747 | 0.928 | 0.425 | 0.428 | 0.303 | 0.584 |
| CC1(C)CCC(CN2CCN(c3ccc(C(=O)NS(=O)(=O)c4ccc(NCC5CCOCC5)c([N+](=O)[O-])c4)c(Oc4cnc5[nH]ccc5c4)c3)CC2)=C(c2ccc(Cl)cc2)C1 [Venetoclax] + CN(C)CCCOc1ccc(-c2ccc3ncc4c(c3c2)n(C2CCOCC2)c(=O)n4C)cn1 [AZD0156] (first compound max 1 µM, 7x7, partner max 1 µM) | 0.196 | 0.239 | 0.148 | 0.594 | 0.275 | 0.182 | 0.226 | 0.188 | 0.104 | 0.306 | 0.783 | 0.3 | 0.25 | 0.141 | 0.551 | 0.244 | 0.28 | 0.199 | 0.249 | 0.725 |
| COc1nnc2ccc(N3CCC(c4ccc(OCCN5CCN(C)C(=O)[C@H]5C)cc4)CC3)nn12 [AZD5153] + C[C@@H]1COCCN1C2=NC(=NC(=C2)C3(CC3)[S@](=N)(=O)C)C4=C5C=CNC5=NC=C4 [AZD6738] (first compound max 1 µM, 7x7, partner max 10 µM) | 0.839 | 0.712 | 0.757 | 0.629 | 0.595 | 0.714 | 0.464 | 0.589 | 0.509 | 0.53 | 0.869 | 0.973 | 0.7 | 0.901 | 0.627 | 0.95 | 0.912 | 0.379 | 0.467 | 0.747 |
| C=CCn1c(=O)c2cnc(Nc3ccc(N4CCN(C)CC4)cc3)nc2n1-c1cccc(C(C)(C)O)n1 [AZD1775] + C[C@@H]1COCCN1C2=NC(=NC(=C2)C3(CC3)[S@](=N)(=O)C)C4=C5C=CNC5=NC=C4 [AZD6738] (first compound max 1 µM, partner max 10 µM) | 0.602 | 0.657 | 0.822 | 0.441 | 0.702 | 0.771 | 0.548 | 0.852 | 0.53 | 0.464 | 0.851 | 0.883 | 0.794 | 0.905 | 0.665 | 0.944 | 0.829 | 0.486 | 0.453 | 0.942 |
| CC(=O)c1c(C)c2cnc(Nc3ccc(N4CCNCC4)cn3)nc2n(C2CCCC2)c1=O [Palbociclib] + Cn1cnc2c(F)c(Nc3ccc(Br)cc3Cl)c(C(=O)NOCCO)cc21 [Selumetinib] (first compound max 10 µM, 7x7, partner max 10 µM) | 0.159 | 0.289 | 0.17 | 0.349 | 0.344 | 0.536 | 0.245 | 0.601 | 0.15 | 0.103 | 0.345 | 0.827 | 0.301 | 0.633 | 0.194 | 0.477 | 0.764 | 0.356 | 0.235 | 0.734 |
